# Source: ChEMBL document CHEMBL5137134, “Developing the Natural Prenylflavone Artocarpin from Artocarpus hirsutus as a Potential Lead Targeting Pathogenic, Multidrug-Resistant Staphylococcus aureus, Persisters and Biofilms with No Detectable Resistance” (J Nat Prod, 2022)
# Calls of active or inactive are those of the source. The calls are words filed in the database; no cut-off is given here.
# Tests used:
# [1] = tested on: Enterococcus; assay: Antibacterial activity against Enterococcus NR 31903 assessed as reduction in bacterial growth incubated for 16 to 18 hrs by broth microdilution method; format: functional; conditions: time 16-18 hrs
# [2] = tested on: Escherichia coli; assay: Antibacterial activity against Escherichia coli ATCC 25922 assessed as reduction in bacterial growth incubated for 16 to 18 hrs by broth microdilution method; format: functional; conditions: time 16-18 hrs
# [3] = Cytotoxicity against African green monkey Vero cells after 72 hrs by MTT assay; format: toxicity, cell-based; conditions: chlorocebus sabaeus
# [4] = tested on: Acinetobacter baumannii; assay: Antibacterial activity against Acinetobacter baumannii BAA 1605 assessed as reduction in bacterial growth incubated for 16 to 18 hrs in presence of PMBN by broth microdilution method; format: functional; conditions: time 16-18 hrs
# [5] = tested on: Staphylococcus aureus; assay: Antibacterial activity against methicillin/tetracycline resistant Staphylococcus aureus NRS 100 assessed as reduction in bacterial growth incubated for 16 to 18 hrs by broth microdilution method; format: functional; conditions: time 16-18 hrs
# [6] = tested on: Staphylococcus aureus; assay: Antibacterial activity against gentamycin/linezolid/methicillin/trimeth/sulfa resistant Staphylococcus aureus NRS 119 assessed as reduction in bacterial growth incubated for 16 to 18 hrs by broth microdilution method; format: functional; conditions: time 16-18 hrs
# [7] = tested on: Staphylococcus aureus; assay: Antibacterial activity against methicillin/meropenem/levoflaxacin resistant Staphylococcus aureus NRS 198 assessed as reduction in bacterial growth incubated for 16 to 18 hrs by broth microdilution method; format: functional; conditions: time 16-18 hrs
# [8] = tested on: Staphylococcus aureus; assay: Antibacterial activity against methicillin/levoflaxacin/meropenem resistant Staphylococcus aureus NRS 193 assessed as reduction in bacterial growth incubated for 16 to 18 hrs by broth microdilution method; format: functional; conditions: time 16-18 hrs
# [9] = tested on: Staphylococcus aureus; assay: Antibacterial activity against methicillin/levoflaxacin/meropenem resistant Staphylococcus aureus NRS 186 assessed as reduction in bacterial growth incubated for 16 to 18 hrs by broth microdilution method; format: functional; conditions: time 16-18 hrs
# [10] = tested on: Staphylococcus aureus; assay: Antibacterial activity against methicillin/levoflaxacin/vancomycin/meropenem/gentamycin/spectinomycin/teicoplanin resistant Staphylococcus aureus VRS 12 assessed as reduction in bacterial growth incubated for 16 to 18 hrs by broth microdilution method; format: functional; conditions: time 16-18 hrs
# [11] = tested on: Enterococcus; assay: Antibacterial activity against vancomycin sensitive/methicillin resistant Enterococcus NR 31884 assessed as reduction in bacterial growth incubated for 16 to 18 hrs by broth microdilution method; format: functional; conditions: time 16-18 hrs
# [12] = tested on: Enterococcus; assay: Antibacterial activity against vancomycin sensitive/methicillin resistant Enterococcus NR 31887 assessed as reduction in bacterial growth incubated for 16 to 18 hrs by broth microdilution method; format: functional; conditions: time 16-18 hrs
# [13] = tested on: Enterococcus; assay: Antibacterial activity against vancomycin/methicillin/levoflaxacin/minocycline resistant Enterococcus NR 31909 assessed as reduction in bacterial growth incubated for 16 to 18 hrs by broth microdilution method; format: functional; conditions: time 16-18 hrs
# [14] = tested on: Enterococcus; assay: Antibacterial activity against vancomycin/methicillin/levoflaxacin/minocycline resistant Enterococcus NR 31912 assessed as reduction in bacterial growth incubated for 16 to 18 hrs by broth microdilution method; format: functional; conditions: time 16-18 hrs
# [15] = tested on: Staphylococcus aureus; assay: Bactericidal activity against Staphylococcus aureus ATCC 29213 assessed as reduction in log10 CFU at 2.5 times MIC after 5 mins by time kill assay; format: functional
# [16] = tested on: Staphylococcus aureus; assay: Bactericidal activity against Staphylococcus aureus ATCC 29213 assessed as reduction in log10 CFU at 10 times MIC after 5 mins by time kill assay; format: functional
# [17] = tested on: Staphylococcus aureus; assay: Bactericidal activity against Staphylococcus aureus ATCC 29213 assessed as inhibition of bacterial regrowth at 10 time MIC after 24 hrs by time kill assay; format: functional, organism-based
# [18] = tested on: Staphylococcus aureus; assay: Synergistic antibacterial activity against Staphylococcus aureus ATCC 29213 assessed as reduction in bacterial growth incubated for 24 hrs in presence of meropenem by checkerboard method; format: functional
# [19] = tested on: Staphylococcus aureus; assay: Synergistic antibacterial activity against Staphylococcus aureus ATCC 29213 assessed as reduction in bacterial growth incubated for 24 hrs in presence of minocycline by checkerboard method; format: functional
# [20] = tested on: Staphylococcus aureus; assay: Synergistic antibacterial activity against Staphylococcus aureus ATCC 29213 assessed as reduction in bacterial growth incubated for 24 hrs in presence of vancomycin by checkerboard method; format: functional
# [21] = tested on: Staphylococcus aureus; assay: Post antibiotic effect against Staphylococcus aureus ATCC 29213 at 10 times MIC incubated for 1 hr followed by replacement with drug free medium and measured every 1 hr (reference value: 0 hr); format: functional
# [22] = tested on: Staphylococcus aureus; assay: Bactericidal activity against Staphylococcus aureus ATCC 29213 assessed as decrease in intracellular ATP level after 1 hr by ATP bioluminescence assay; format: functional, organism-based; conditions: DDE = dose-dependent effect
# [23] = tested on: Staphylococcus aureus; assay: Antibacterial activity against Staphylococcus aureus ATCC 29213 infected in BALB/c mouse neutropenic thigh infection model assessed as reduction in thigh bacterial load at 50 mg/kg, ip pre-infected with bacteria for 3 hrs followed by compound addition twice at a interval of 3 hrs and measured after 24 hrs; format: functional
# [24] = tested on: Staphylococcus aureus; assay: Antibacterial activity against Staphylococcus aureus ATCC 29213 infected in Swiss mouse skin infection model assessed as reduction in skin bacterial load at 1 % dose administered twice daily for 4 days; format: functional; conditions: time 4 day
# [25] = tested on: Staphylococcus aureus; assay: Synergistic antibacterial activity against Staphylococcus aureus ATCC 29213 assessed as fractional inhibitory concentration incubated for 24 hrs in presence of gentamycin by checkerboard method; format: functional
# [26] = tested on: Staphylococcus aureus; assay: Synergistic antibacterial activity against Staphylococcus aureus ATCC 29213 assessed as fractional inhibitory concentration incubated for 24 hrs in presence of linezolid by checkerboard method; format: functional
# [27] = tested on: Staphylococcus aureus; assay: Synergistic antibacterial activity against Staphylococcus aureus ATCC 29213 assessed as fractional inhibitory concentration incubated for 24 hrs in presence of daptomycin by checkerboard method; format: functional
# [28] = tested on: Staphylococcus aureus; assay: Synergistic antibacterial activity against Staphylococcus aureus ATCC 29213 assessed as fractional inhibitory concentration incubated for 24 hrs in presence of meropenem by checkerboard method; format: functional
# [29] = tested on: Staphylococcus aureus; assay: Synergistic antibacterial activity against Staphylococcus aureus ATCC 29213 assessed as fractional inhibitory concentration incubated for 24 hrs in presence of rifampicin by checkerboard method; format: functional
# [30] = tested on: Staphylococcus aureus; assay: microbe, parasite or virus in culture; conditions: ATCC 29213
# Description: Antibacterial activity against Staphylococcus aureus ATCC 29213 assessed as reduction in bacterial growth incubated for 16 to 18 hrs by broth microdilution method
compound,measurement,setting,value
COc1cc2oc(-c3ccc(O)cc3O)c(CC=C(C)C)c(=O)c2c(O)c1/C=C/C(C)C [ARTOCARPIN],MIC,[1],2 µg/mL
same,MIC,[2],> 128 µg/mL
same,CC50 at 72 h,[3],80 µg/mL
same,MIC,[4],4 µg/mL
same,MIC,[5],4 µg/mL
same,MIC,[6],4 µg/mL
same,MIC,[7],2 µg/mL
same,MIC,[8],4 µg/mL
same,MIC,[9],4 µg/mL
same,MIC,[10],4 µg/mL
same,MIC,[11],2 µg/mL
same,MIC,[12],2 µg/mL
same,MIC,[13],1 µg/mL
same,MIC,[14],2 µg/mL
same,Activity,[15],1.4 log10CFU/ml
same,Activity,[16],2.07 log10CFU/ml
same,Activity,[17],Active
same,MIC,[18],2 µg/mL
same,MIC,[19],1 µg/mL
same,MIC,[20],2 µg/mL
same,PAE,[21],22 h
same,Activity,[22],Dde
same,Activity,[23],0.6 log10CFU/g
same,Activity,[24],1 log10CFU/g
same,FIC,[25],0.015
same,FIC,[26],0.25
same,FIC,[27],0.25
same,FIC,[28],0.5
same,FIC,[29],0.5
same,MIC,[30],2 µg/mL
